Test results from patent publication US11512053B2, “Arginine methyltransferase inhibitors and uses thereof” (priority 2013, dated 2022).
pIC50: −log10 of the molar value. Where two headings read alike, the source gives them in different places.

Key:
[1] = target: full-length human PRMT6 (Flag- and His-tagged) (Homo sapiens, UniProt Q96LA8); experiment: PRMT6 Biochemical Assay (3H-SAM Flashplate, peptide substrate); settings: read-out: Biochemical IC50 PRMT6
Method in brief: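 Flag/His-tagged full-length human PRMT6 (1 nM) preincubated with compound 30 min at room temperature in Bicine pH 7.6 buffer, then reaction started with 3H-SAM 200 nM plus unlabeled SAM 250 nM and biotinylated H4 36-50 peptide (K44me1) 75 nM; 2% DMSO. Quenched with 400 uM cold SAM; labeled peptide captured on streptavidin Flashplate, counted; % inhibition vs DMSO and 1 mM SAH controls fit by 3- or 4-parameter curve.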

[2] = target: full-length human PRMT1 isoform 1 (GST-tagged) (Homo sapiens, UniProt Q99873); experiment: PRMT1 Biochemical Assay (3H-SAM Flashplate, peptide substrate)
full-length human PRMT1 isoform 1 (GST-tagged), sequence (Q99873 with tags, fused parts or gaps): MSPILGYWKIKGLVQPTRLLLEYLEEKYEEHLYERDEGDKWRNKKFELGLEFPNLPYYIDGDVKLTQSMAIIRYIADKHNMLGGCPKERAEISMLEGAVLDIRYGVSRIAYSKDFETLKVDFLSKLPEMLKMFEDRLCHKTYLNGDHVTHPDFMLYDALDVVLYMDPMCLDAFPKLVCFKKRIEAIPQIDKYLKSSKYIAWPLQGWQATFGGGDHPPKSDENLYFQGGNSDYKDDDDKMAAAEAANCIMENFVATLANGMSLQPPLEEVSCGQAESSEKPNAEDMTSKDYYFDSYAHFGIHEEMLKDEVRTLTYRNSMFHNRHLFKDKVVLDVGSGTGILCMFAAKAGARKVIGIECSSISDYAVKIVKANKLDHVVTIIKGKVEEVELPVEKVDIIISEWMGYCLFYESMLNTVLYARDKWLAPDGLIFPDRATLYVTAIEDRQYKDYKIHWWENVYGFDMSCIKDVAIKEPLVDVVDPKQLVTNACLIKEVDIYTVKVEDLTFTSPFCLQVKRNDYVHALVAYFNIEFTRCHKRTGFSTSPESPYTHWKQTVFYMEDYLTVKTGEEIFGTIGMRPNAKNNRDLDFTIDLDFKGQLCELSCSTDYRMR
From the text: General Materials. S-adenosylmethionine (SAM), S-adenosylhomocysteine (SAH), bicine, Tween20, dimethylsulfoxide (DMSO), bovine skin gelatin (BSG), and Tris(2-carboxyethyl)phosphine hydrochloride solution (TCEP) were purchased from Sigma-Aldrich at the highest level of purity possible. ^3H-SAM was purchase from American Radiolabeled Chemicals with a specific activity of 80 Ci/mmol. 384-well streptavidin Flashplates were purchased from PerkinElmer.
Protein Expression. Recombinant baculovirus were generated according to Bac-to-Bac kit instructions (Life Technologies). […] Infections were carried out at 27° C. for 48 hours, harvested by centrifugation, and stored at −80° C. for purification.
Protein Purification. […] GST-tagged PRMT1 was eluted with 50 mM Tris, 2 mM glutathione, pH 7.8, dialysed in buffer A and concentrated to 1 mg/mL.
General Procedure for PRMT1 Enzyme Assays on Peptide Substrates. The assays were all performed in a buffer consisting of 20 mM Bicine (pH=7.6), 1 mM TCEP, 0.005% BSG, and 0.002% Tween 20, prepared on the day of use. […] DMSO (1 ul) was added to Columns 11, 12, 23, 24, rows A-H for the maximum signal control and 1 ul of SAH, a known product and inhibitor of PRMT1, was added to columns 11, 12, 23, 24, rows I-P for the minimum signal control. A cocktail (40 ul) containing the PRMT1 enzyme was added by Multidrop Combi (Thermo-Fisher). The compounds were allowed to incubate with PRMT1 for 30 min at room temperature, then a cocktail (10 ul) containing SAM and peptide was added to initiate the reaction (final volume=51 ul). […] The assays were stopped by the addition of non-radiolabeled SAM (10 ul) to a final concentration of 300 uM, which dilutes the ^3H-SAM to a level where its incorporation into the peptide substrate is no longer detectable. 50 ul of the reaction in the 384-well polypropylene plate was then transferred to a 384-well Flashplate and the biotinylated peptides were allowed to bind to the streptavidin surface for at least 1 hour before being washed once with 0.1% Tween20 in a Biotek ELx405 plate washer. The plates were then read in a PerkinElmer TopCount plate reader to measure the quantity of ^3H-labeled peptide bound to the Flashplate surface, measured as disintegrations per minute (dpm) or alternatively, referred to as counts per minute (cpm).
Where dpm=disintegrations per minute, cmpd=signal in assay well, and min and max are the respective minimum and maximum signal controls.
Where top and bottom are the normally allowed to float, but may be fixed at 100 or 0 respectively in a 3-parameter fit. The Hill Coefficient normally allowed to float but may also be fixed at 1 in a 3-parameter fit. Y is the % inhibition and X is the compound concentration.

[3] = single experiment or average of multiple experiments

full-length human PRMT6 (Flag- and His-tagged), sequence (Q96LA8 with tags, fused parts or gaps): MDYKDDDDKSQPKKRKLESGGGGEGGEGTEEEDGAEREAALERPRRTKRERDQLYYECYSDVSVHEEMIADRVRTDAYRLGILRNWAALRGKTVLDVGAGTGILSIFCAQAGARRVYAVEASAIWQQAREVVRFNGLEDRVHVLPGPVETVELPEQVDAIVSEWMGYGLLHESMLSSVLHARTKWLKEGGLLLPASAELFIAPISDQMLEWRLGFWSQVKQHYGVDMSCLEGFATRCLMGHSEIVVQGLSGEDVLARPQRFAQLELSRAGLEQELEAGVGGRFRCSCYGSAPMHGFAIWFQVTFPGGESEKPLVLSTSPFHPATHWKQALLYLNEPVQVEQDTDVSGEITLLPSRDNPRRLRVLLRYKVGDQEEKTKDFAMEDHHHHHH

| pIC50 [1] | pIC50 [1, 3] | pIC50 [2] | pIC50 [2, 3] | SMILES |
| --- | --- | --- | --- | --- |
| > 7.00 | 7.55 | > 7.00 | 7.63 | CNCCN(C)Cc1c[nH]nc1C1CCC(OCC(C)C)CC1 (centres unmarked) [Compound 153] |
| > 7.00 | 7.35 | > 7.00 | 7.75 | CCN1CC2(CCC(c3n[nH]cc3CN(C)CCNC)CC2)N(C)C1=O (centres unmarked) [Compound 154] |
| > 7.00 | 7.22 | > 7.00 | 7.50 | CNCCN(C)Cc1c[nH]nc1[C@H]1CC[C@]2(CC1)CC(=O)N(CC(C)C)C2 [Compound 155] |
| > 7.00 | 7.24 | > 7.00 | 7.76 | CNCCN(C)Cc1c[nH]nc1[C@H]1CC[C@@]2(CC1)CC(=O)N(CC(C)C)C2 [Compound 156] |
| > 7.00 | 7.32 | > 7.00 | 7.73 | CNCCN(C)Cc1c[nH]nc1C1CCC2(CC1)CC(=O)N(C)C2 (centres unmarked) [Compound 157] |
| > 7.00 | 7.27 | > 7.00 | 7.71 | CCOC1CC(OCC)CC2(CCC(c3n[nH]cc3CN(C)CCNC)CC2)C1 (centres unmarked) [Compound 159] |
| 6.00 to 7.00 | 6.95 | > 7.00 | 7.66 | CNCCN(C)Cc1c[nH]nc1C1CCC2(CC1)OCCCO2 [Compound 160] |
| > 7.00 | 7.14 | > 7.00 | 7.59 | CNCCN(C)Cc1c[nH]nc1C1CCC2(CC1)C(=O)NC(=O)N2C (centres unmarked) [Compound 161] |
| > 7.00 | 7.21 | > 7.00 | 7.41 | CCN1C(=O)N(C)CC12CCC(c1n[nH]cc1CN(C)CCNC)CC2 (centres unmarked) [Compound 162] |
| > 7.00 | 7.18 | > 7.00 | 7.76 | CNCCN(C)Cc1c[nH]nc1C1CCC2(CC1)CCN(CCC(C)C)C2=O (centres unmarked) [Compound 163] |
| > 7.00 | 7.15 | > 7.00 | 7.71 | CNCCN(C)Cc1c[nH]nc1C1CCC2(CC1)CCN(CC(C)C)C2=O (centres unmarked) [Compound 164] |
| 6.00 to 7.00 | 6.92 | > 7.00 | 7.75 | CNCCN(C)Cc1c[nH]nc1C1CCC2(CC1)CC(=O)N(CCC(C)C)C2 (centres unmarked) [Compound 165] |
| > 7.00 | 7.31 | > 7.00 | 7.74 | CNCCN(C)Cc1c[nH]nc1[C@H]1CC[C@@H](COC)CC1 [Compound 166] |
| > 7.00 | 7.50 | > 7.00 | 7.96 | CNCCN(C)Cc1c[nH]nc1[C@H]1CC[C@H](COC)CC1 [Compound 167] |
| > 7.00 | 7.35 | > 7.00 | 7.70 | CCOC1CC2(CCC(c3n[nH]cc3CN(C)CCNC)CC2)CC1OCC (centres unmarked) [Compound 168] |
| > 7.00 | 7.75 | > 7.00 | 8.19 | CNCCN(C)Cc1c[nH]nc1C1CCC(CC(C)C)CC1 (centres unmarked) [Compound 169] |

| pIC50 [1] | pIC50 [1, 3] | pIC50 [2] | pIC50 [2, 3] | SMILES |
| --- | --- | --- | --- | --- |
| > 7.00 | 7.24 | > 7.00 | 7.68 | CNCCN(C)Cc1c[nH]nc1C1CCC2(CC1)NC(=O)N(C)C2=O (centres unmarked) [Compound 170] |
| > 7.00 | 7.39 | > 7.00 | 7.83 | CNCCN(C)Cc1c[nH]nc1C1CCC2(CC1)C(=O)N(C)C(=O)N2C (centres unmarked) [Compound 171] |
| > 7.00 | 7.05 | > 7.00 | 7.63 | CNCCN(C)Cc1c[nH]nc1C1=CCC(CCOC)(CCOC)CC1 [Compound 173] |
| > 7.00 | 7.07 | > 7.00 | 7.81 | CNCCN(C)Cc1c[nH]nc1C1CCC(CCOC)(CCOC)CC1 [Compound 174] |
| > 7.00 | 7.42 | > 7.00 | 7.88 | CNCCN(C)Cc1c[nH]nc1C1CCC2(CC1)NC(=O)NC2=O (centres unmarked) [Compound 175] |
| > 7.00 | 7.44 | > 7.00 | 7.99 | CNCCN(C)Cc1c[nH]nc1C1CCC2(CCNC2=O)CC1 (centres unmarked) [Compound 176] |
| 6.00 to 7.00 | 6.95 | > 7.00 | 7.56 | CNCCN(C)Cc1c[nH]nc1C1CCC2(CC1)OCCO2 [Compound 177] |
| > 7.00 | 7.80 | > 7.00 | 8.24 | CNCCN(C)Cc1c[nH]nc1C1CCC2(CCOCC2)CC1 [Compound 178] |
| > 7.00 | 7.20 | > 7.00 | 7.80 | CNCCN(C)Cc1c[nH]nc1C1CC(C)OC(C)C1 (centres unmarked) [Compound 179] |
| > 7.00 | 7.83 | > 7.00 | 8.31 | CNCCN(C)Cc1c[nH]nc1[C@H]1CC[C@H](C(C)C)CC1 [Compound 180] |
| > 7.00 | 7.55 | > 7.00 | 8.33 | CNCCN(C)Cc1c[nH]nc1[C@H]1CC[C@@H](C(C)C)CC1 [Compound 181] |
| > 7.00 | 7.13 | > 7.00 | 7.94 | CNCCN(C)Cc1c[nH]nc1C1CCC(O)C2(CCCC2)C1 (centres unmarked) [Compound 182, 9-[4-({methyl[2-(methylamino)ethyl]amino}methyl)-1H-pyrazol-3-yl]spiro[4.5]decan-6-ol] |
| > 7.00 | 7.45 | > 7.00 | 7.85 | CNCCN(C)Cc1c[nH]nc1C1CCC(C)(C)C(O)C1 (centres unmarked) [Compound 185, 2,2-dimethyl-5-[4-({methyl[2-(methylamino)ethyl]amino}methyl)-1H-pyrazol-3-yl]cyclohexan-1-ol] |
| 6.00 to 7.00 | 6.97 | 6.00 to 7.00 | 6.96 | CNCCN(C)Cc1c[nH]nc1[C@H]1CC[C@H](OCCOc2ccc(OC)cc2)CC1 [Compound 186] |
| 6.00 to 7.00 | 6.58 | 6.00 to 7.00 | 6.71 | CNCCN(C)Cc1c[nH]nc1[C@H]1CC[C@H](OCCOc2ccccc2)CC1 [Compound 187] |

| SMILES | pIC50 [1] | pIC50 [1, 3] | pIC50 [2] | pIC50 [2, 3] |
| --- | --- | --- | --- | --- |
| CNCCN(C)Cc1c[nH]nc1C1CCC2(CC1)CN(C)C(=O)N2C (centres unmarked) [Compound 172] | > 7.00 | 7.34 | > 7.00 | 7.64 |
